The first experiment addresses T1, human DGAT2 (hDGAT2) (Homo sapiens, UniProt Q96PD7).
T1 construct: made in house; host or cells: Sf-9 insect cells (baculovirus), membrane fraction
T1 sequence (Q96PD7 1-388): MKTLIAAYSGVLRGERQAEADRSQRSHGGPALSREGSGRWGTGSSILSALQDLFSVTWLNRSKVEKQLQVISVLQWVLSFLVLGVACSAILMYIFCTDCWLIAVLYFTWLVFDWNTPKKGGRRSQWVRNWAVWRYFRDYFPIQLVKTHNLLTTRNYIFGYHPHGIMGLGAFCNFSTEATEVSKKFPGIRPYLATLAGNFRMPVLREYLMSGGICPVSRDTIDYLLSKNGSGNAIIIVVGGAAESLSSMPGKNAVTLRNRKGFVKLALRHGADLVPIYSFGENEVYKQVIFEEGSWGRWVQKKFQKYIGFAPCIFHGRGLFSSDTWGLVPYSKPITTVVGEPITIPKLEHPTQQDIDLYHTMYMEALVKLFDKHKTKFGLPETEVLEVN
Kind of experiment: DGAT2 Enzymatic Activity Assay. The format is biochemical. The following applies: membrane prep of Sf-9 cells expressing hDGAT2; 25 μM diolein, 5 μM 13C oleoyl-CoA; 13C18-triolein by LC/MS/MS; read-out: DGAT2 IC50. The method, then: Insect Cell Expression and Membrane Preparation
Sf-9 insect cells were maintained in Grace's insect cell culture medium with 10% heated-inactivated fetal bovine serum, 1% Pluronic F-68 and 0.14 μg/ml Kanamycine sulfate at 27° C. in a shaker incubator. After infection with untagged baculovirus expressing human DGAT2 (hDGAT2) at multiplicity of infection (MOI) 3 for 48 hours, cells were harvested. Cell pellets were suspended in buffer containing 10 mM Tris-HCl pH 7.5, 1 mM EDTA, 250 mM sucrose and Complete Protease Inhibitor Cocktail (Sigma Aldrich), and sonicated on ice. Cell debris were removed by centrifugation at 2000×g for 15 minutes. Membrane fractions were isolated by ultracentrifugation (100,000×g), resuspended in the same buffer, and frozen (−80° C.) for later use. The protein concentration was determined with the Pierce™ BCA Protein Assay Kit (Thermo Fisher Scientific). Expression of protein levels was analyzed by immunoblotting with rabbit anti-DGAT2 antibody (Abcam, ab102831) and donkey anti-rabbit IgG H&L Alexa Fluor® 647 (Abcam, ab150075) followed by detection using Typhoon FLA9000 (GE Healthcare).
LC/MS/MS analyses were performed using Thermal Fisher's LX4-TSQ Vantage system. This system consists of an Agilent binary high-performance liquid chromatography (HPLC) pump and a TSQ Vantage triple quadrupole MS/MS instrument. For each sample, 2 μL samples from the top organic layer of in-plate liquid-liquid extraction were injected onto a Thermo Betabasic C4 column (2.1 mm×20 mm, 5 μm particle size). The samples were then eluted using the following conditions; mobile phase: Isopropanol:acetonitrile/10 mM ammonium formate=50/35/15 (v/v/v), flow rate: 0.8 mL/min, temperature: 25° C. Data was acquired in positive mode using a heated electrospray ionization (HESI) interface. The operational parameters for the TSQ Vantage MS/MS instrument were a spray voltage of 3000 V, capillary temperature of 280° C., vaporizer temperature 400° C., sheath gas 45 arbitrary unit, Aux gas 10 arbitrary units, S-lens 165 and collision gas 1.0 mTorr. […] (SRM) chromatograms of ^13C18-triolein (Q1: 920.8>Q3: 621.3) and internal standard ^13C21-triolein (Q1: 923.8>Q3: 617.3) were collected for 33 sec. The peak area was integrated by Xcalibur Quan software. The ratio between the ^13C18triolein generated in the reaction and spiked in internal standard ^13C21-triolein was used to generate percentage inhibition and IC50 values. Compound percentage inhibition was calculated by the following formula: Inhibition %=1−[(compound response−low control)/(high control−low control)]×100%. Potent compounds were titrated and IC50 were calculated by 4 parameter sigmoidal curve fitting formula.
DGAT2 Enzymatic Activity Assay
DGAT2 activity was determined by measuring the amount of enzymatic product ^13C18-triolein (^13C-1,2,3-Tri(cis-9-octadecenoyl)glycerol) using the membrane prep mentioned above. The assay was carried out in ABgene 384-well assay plates in a final volume of 25 μL at rt. The assay mixture contained the following: assay buffer (100 mM Tris·Cl, pH 7.0, 20 mM MgCl2, 5% ethanol), 25 μM of diolein, 5 μM of ^13C oleoyl-CoA and 8 ng/μL of DGAT2 membrane.
`CCC(C)n1c(=O)n(-c2cccc(OC(F)F)c2)c2ccc(C(=O)NC3(C)CS(=O)(=O)C3)cc21` (single isomer, unassigned) [Example 46a, 3-(sec-butyl)-1-(3-(difluoromethoxy)phenyl)-N-(3-methyl-1,1-dioxidothietan-3-yl)-2-oxo-2,3-dihydro-1H-benzo[d]imidazole-5-carboxamide]: the half-inhibitory concentration (IC50) (commonly the concentration that gives 50% inhibition) turned out to be 81 nM.
Same read-out and setting: as for `CC(C)n1c(=O)n(-c2cccc(OC(F)F)c2)c2ccc(C(=O)N[C@H]3CCOC[C@@H]3O)cc21` [Example 29, 1-[3-(difluoromethoxy)phenyl]-N-[(3R,4S)-3-hydroxytetrahydropyran-4-yl]-3-isopropyl-2-oxo-benzimidazole-5-carboxamide], the figure is 1260 nM; as for `CC(C)n1c(=O)n(-c2cccc(OC(F)F)c2)c2ccc(C(=O)NC3(C)CS(=O)(=O)C3)cc21` [Example 26, 1-[3-(difluoromethoxy)phenyl]-3-isopropyl-N-(3-methyl-1,1-dioxo-thietan-3-yl)-2-oxo-benzimidazole-5-carboxamide], 54 nM; as for `CC(C)n1c(=O)n(-c2cccc(OC(F)F)c2)c2ccc(C(=O)N[C@]3(C)CCS(=O)(=O)C3)c(F)c21` [Example 125, (R)-1-(3-(Difluoromethoxy)phenyl)-4-fluoro-3-isopropyl-N-(3-methyl-1,1-dioxidotetrahydrothiophen-3-yl)-2-oxo-2,3-dihydro-1H-benzo[d]imidazole-5-carboxamide], 203 nM.
The same measure, in the same setting: the result for `CC(C)n1c(=O)n(-c2cc(OCC(F)F)ccn2)c2cc(F)c(C(=O)NC3(C)CCS(=O)(=O)CC3)cc21` [Example 121, 1-(4-(2,2-difluoroethoxy)pyridin-2-yl)-6-fluoro-3-isopropyl-N-(4-methyl-1,1-dioxidotetrahydro-2H-thiopyran-4-yl)-2-oxo-2,3-dihydro-1H-benzo[d]imidazole-5-carboxamide] reads 92 nM; that for `CC(C)n1c(=O)n(-c2cccc(OC(F)F)c2)c2c(F)cc(C(=O)NC3(C)CCS(=O)(=O)CC3)cc21` [Example 111, 1-[3-(difluoromethoxy)phenyl]-7-fluoro-3-isopropyl-N-(4-methyl-1,1-dioxo-thian-4-yl)-2-oxo-benzimidazole-5-carboxamide], 68 nM.
On the same count and under the same terms, the result for `CC(C)n1c(=O)n(-c2cccc(C(N)=O)c2)c2ccc(C(=O)NC3(C)CCS(=O)(=O)CC3)cc21` [Example 55, 1-(3-carbamoylphenyl)-3-isopropyl-N-(4-methyl-1,1-dioxidotetrahydro-2H-thiopyran-4-yl)-2-oxo-2,3-dihydro-1H-benzo[d]imidazole-5-carboxamide] reads > 9990 nM; that for `CC(C)[C@@H](CO)NC(=O)c1ccc2c(c1)n(C(C)C)c(=O)n2-c1cccc(OC(F)F)c1` [Example 34, 1-[3-(difluoromethoxy)phenyl]-N-[(1S)-1-(hydroxymethyl)-2-methyl-propyl]-3-isopropyl-2-oxo-benzimidazole-5-carboxamide], 62 nM; that for `CC(n1c(=O)n(-c2cccc(OCC(F)F)c2)c2ccc(C(=O)NC3(C)CCS(=O)(=O)CC3)cc21)C(C)(C)O` (single isomer, unassigned) [Example 68a, 1-(3-(2,2-difluoroethoxy)phenyl)-3-(3-hydroxy-3-methylbutan-2-yl)-N-(4-methyl-1,1-dioxidotetrahydro-2H-thiopyran-4-yl)-2-oxo-2,3-dihydro-1H-benzo[d]imidazole-5-carboxamide], 4.1 nM.
In the case of `CC(C)n1c(=O)n(-c2cccc(OC(F)F)c2)c2ncc(C(=O)NC3(C)CS(=O)(=O)C3)cc21` [Example 104, 3-[3-(difluoromethoxy)phenyl]-1-isopropyl-N-(3-methyl-1,1-dioxo-thietan-3-yl)-2-oxo-imidazo[4,5-b]pyridine-6-carboxamide], the IC50 worked out at 94 nM.
On to `CC(=O)Nc1ccc(-n2c(=O)n(C(C)C)c3cc(C(=O)NC4(C)CS(=O)(=O)C4)ccc32)cc1O` [Example 47, 1-(4-acetamido-3-hydroxyphenyl)-3-isopropyl-N-(3-methyl-1,1-dioxidothietan-3-yl)-2-oxo-2,3-dihydro-1H-benzo[d]imidazole-5-carboxamide], for which the IC50 is > 10000 nM.
Same read-out and setting: the result for `CC(C(F)F)n1c(=O)n(-c2cccc(OC(F)F)c2)c2ccc(C(=O)NC3(C)CCS(=O)(=O)CC3)cc21` (single isomer, unassigned) [Example 45b, 1-(3-(Difluoromethoxy)phenyl)-3-(1,1-difluoropropan-2-yl)-N-(4-methyl-1,1-dioxidotetrahydro-2H-thiopyran-4-yl)-2-oxo-2,3-dihydro-1H-benzo[d]imidazole-5-carboxamide] reads 101 nM.

The experiment is the same for the next values; noted with them: membrane prep of Sf-9 cells expressing hDGAT2; 25 μM diolein, 5 μM 13C oleoyl-CoA; 13C18-triolein by LC/MS/MS; read-out: Human DGAT2 IC50.
Regarding `CCOc1cc(-n2c(=O)n(C(C)C)c3cc(C(=O)NC4(C)CS(=O)(=O)C4)c(F)cc32)c(F)cn1` [Example 21, 1-(2-Ethoxy-5-fluoropyridin-4-yl)-6-fluoro-3-isopropyl-N-(3-methyl-1,1-dioxidothietan-3-yl)-2-oxo-2,3-dihydro-1H-benzo[d]imidazole-5-carboxamide], the IC50 was found to be 31 nM.
Still for that read-out and setting: as for `C[C@@]1(NC(=O)c2ccc3c(c2)n(-c2ccc(F)cc2)c(=O)n3-c2cccc(OC(F)F)c2)CCS(=O)(=O)C1` [Example 3, (R)-1-(3-(difluoromethoxy)phenyl)-3-(4-fluorophenyl)-N-(3-methyl-1,1-dioxidotetrahydrothiophen-3-yl)-2-oxo-2,3-dihydro-1H-benzo[d]imidazole-5-carboxamide], the figure is 2.4 nM.
As for `CC(C)n1c(=O)n(-c2cc(OC(F)F)ccc2F)c2ccc(C(=O)NC3(C)CS(=O)(=O)C3)cc21` [Example 80, 1-(5-(Difluoromethoxy)-2-fluorophenyl)-3-isopropyl-N-(3-methyl-1,1-dioxidothietan-3-yl)-2-oxo-2,3-dihydro-1H-benzo[d]imidazole-5-carboxamide], the half-inhibitory concentration (IC50) was determined as 7.7 nM.
`CC(C)n1c(=O)n(-c2cc(OC(F)F)ncc2F)c2cc(F)c(C(=O)NC3(C)CS(=O)(=O)C3)cc21` [Example 24, 1-(2-(Difluoromethoxy)-5-fluoropyridin-4-yl)-6-fluoro-3-isopropyl-N-(3-methyl-1,1-dioxidothietan-3-yl)-2-oxo-2,3-dihydro-1H-benzo[d]imidazole-5-carboxamide]: the IC50 worked out at 66 nM.
On the same count and under the same terms, the result for `CC(C)n1c(=O)n(-c2cccc(OC(F)F)c2)c2ccc(C(=O)N[C@@]3(C)CCS(=O)(=O)C3)c(F)c21` [Example 124, (S)-1-(3-(Difluoromethoxy)phenyl)-4-fluoro-3-isopropyl-N-(3-methyl-1,1-dioxidotetrahydrothiophen-3-yl)-2-oxo-2,3-dihydro-1H-benzo[d]imidazole-5-carboxamide] reads 191 nM; that for `CC(C)Oc1cccc(-n2c(=O)n(C(C)C)c3cc(C(=O)NC4(C)CS(=O)(=O)C4)ccc32)c1` [Example 6, 1-(3-isopropoxyphenyl)-3-isopropyl-N-(3-methyl-1,1-dioxo-thietan-3-yl)-2-oxo-benzimidazole-5-carboxamide], 88 nM.
On the same count and under the same terms, the result for `CC(C)n1c(=O)n(-c2cccc(OCC(F)F)c2)c2ccc(C(=O)NC3(C)CS(=O)(=O)C3)cc21` [Example 8, 1-[3-(2,2-difluoroethoxy)phenyl]-3-isopropyl-N-(3-methyl-1,1-dioxo-thietan-3-yl)-2-oxo-benzimidazole-5-carboxamide] reads 43 nM.

(Values after patent US11976061B2, “Preparation of benzimidazolone derivatives as novel diacylglyceride O-acyltransferase 2 inhibitors” (Merck Sharp & Dohme LLC, priority 2020, dated 2024).)
